Measured values published in US10519504B2, “Methods for treatment of oncological disorders using epimetabolic shifters, multidimensional intracellular molecules, or environmental influencers” (Berg LLC, priority 2009, dated 2019).

Test system: HDFa cells
Experiment: OCR and ECAR, SeaHorse XF analyzer
Format: cell-based, human
Description: (SeaHorse Biosciences Inc, North Billerica, Mass.).
In this experiment, the OCR and extracellular acidification rate (ECAR) in normal cells lines were obtained in the presence and absence of CoQ10 to determine baseline values. It was observed that in its native nutrient environment, the basal OCR rates in normal cells lines are different, and are usually a function of the physiological roles of the cells in the body. […]
Table 97 below describes the ECAR values (mpH/min) in HDFa cells in the presence or absence of CoQ10 under normoxic and hypoxic conditions at 5.5 mM and 22 mM glucose.

Compound `COC1=C(OC)C(=O)C(C/C=C(\C)CC/C=C(\C)CC/C=C(\C)CC/C=C(\C)CC/C=C(\C)CC/C=C(\C)CC/C=C(\C)CC/C=C(\C)CC/C=C(\C)CCC=C(C)C)=C(C)C1=O` [Q10, Coenzyme Q10] has an ECAR (50 μM, Hypoxia (5.5 mM) glucose) of 5 mpH/min, an ECAR (50 μM, Hypoxia (22 mM) glucose) of 6 mpH/min and an ECAR (50 μM, Normoxia (5.5 mM) glucose) of 6 mpH/min. For the same compound, the ECAR (50 μM, Normoxia (22 mM) glucose) was 5 mpH/min, the ECAR (100 μM, Hypoxia (5.5 mM) glucose) was 5 mpH/min and the ECAR (100 μM, Hypoxia (22 mM) glucose) was 8 mpH/min. For the same compound, the ECAR (100 μM, Normoxia (5.5 mM) glucose) was 6 mpH/min, the ECAR (100 μM, Normoxia (22 mM) glucose) was 5 mpH/min and the ECAR (HDFa, high glucose hypoxic conditions) was “lowering of elevated ECAR to a value that was observed in untreated normoxic conditions”. The ECAR values (HDFa, normoxic and hypoxic, 5.5 mM and 22 mM glucose) was “minimal influence on ECAR values”.
